Key:
[1] = tested on: SNHG17-overexpressing breast cancer cells (MCF-7); assay: Sensitivity detection of breast cancer cells to fulvestrant (MTT); type: cell-based, human; conditions: fulvestrant 2, 4, 8, 16 μmol/L, 48 h, SNHG17-overexpressing cells vs control cells (FIG. 5)
Procedure: MCF-7 and SNHG17 overexpressing breast cancer cells in the logarithmic growth phase were inoculated into 96-well plates (with DMEM complete medium) at a density of 3000 cells per well. Then cells were cultured in a 37° C. 5V/V % CO2 incubator until the cells adhered to the plates. Then added fulvestrant respectively, and the final concentration was 0 (cell control group), 2, 4, 8, and 16 μmol/L. Each concentration was set in 4 duplicate wells, and a blank control group was set at the same time. After being cultured for 48 hours in a 37° C., 5V/V % CO2 incubator, 20 μL of MTT (5 g/L) solution was added to each well. After culturing for 4 hours, discarded the medium and added triple solution (10 g SDS, 5 mL of isobutanol, 0.1 mL of 10M hydrochloric acid, and ddH2O to make a 100 mL solution) and incubated overnight. Then the absorbance (A570 nm) value was measured at 570 nm with an enzyme calibration. The triple solution was used as a blank control group to detect the cells' survival rate. Growth inhibition rate (%)=(control group A570 nm—experimental group A570 nm)/cell control group A570 nm×100%. The growth inhibition rate of fulvestrant on breast cancer cells is shown in FIG. 5, wherein C stands for SNHG17-overexpressing control breast cancer cells, D stands for SNHG17-overexpressing breast cancer cells, *P<0.05, **P<0.01 indicates the data had statistical significance.

[2] = tested on: SNHG17-overexpressing breast cancer cells (MCF-7); assay: Plate colony formation experiment, fulvestrant resistance of SNHG17-overexpressing cells; type: cell-based, human; conditions: medium containing 6 μmol/L fulvestrant, 15 days; SNHG17-overexpressing cells vs SNHG17-overexpressing control cells (FIG. 4)
Procedure: The above-mentioned SNHG17-overexpressing control breast cancer cells and SNHG17-overexpressing breast cancer cells were selected for experiments to detect the drug resistance to fulvestrant. 1000 well-grown cells were inoculated into a culture plate (diameter 60 mm) containing DMEM complete medium, then gently shook the culture plate to disperse the cells evenly. The cells were incubated at 37° C., 5V/V % CO2 for 15 days, and replaced complete medium every 3 days. When colonies were visible to the naked eye in the culture dish, the culture was terminated and the culture medium was discarded. After that, the cells were carefully washed twice by PBS and dried. Methanol was used for anchor cells for 15 min, then the methanol was discarded and cells were air-dried. Cells were stained with Giemsa staining solution (purchased from Merck) for 10 min, then the staining solution was slowly washed away with running water, and cells were air-dried. Experiments were divided into blank group (SNHG17-overexpressing control breast cancer stable cells, medium containing 6 μmol/L DMSO), control group (SNHG17-overexpressing control breast cancer cells, medium containing 6 μmol/L fulvestrant), overexpression group (SNHG17-overexpressing breast cancer cells, medium containing 6 μmol/L fulvestrant) 3 groups. […]

C[C@]12CC[C@@H]3c4ccc(O)cc4C[C@@H](CCCCCCCCC[S+]([O-])CCCC(F)(F)C(F)(F)F)[C@H]3[C@@H]1CC[C@@H]2O (some centres unmarked) [fulvestrant]
growth inhibition rate of fulvestrant on breast cancer cells [1]: significantly greater than that in SNHG17-overexpressing control breast cancer cells | number of colonies formed [2]: greater than that of SNHG17-overexpressing control breast cancer cells

— US11866707B2, “Use of non-coding RNA SNHG17 as biomarker and therapeutic target” (ZHEJIANG CANCER HOSPITAL, priority 2022, dated 2024)
